Test results taken from patent publication US20130225839A1, “PREPARATION METHOD OF FOSAMPRENAVIR DERIVATIVES AND RELEVANT INTERMEDIATE THEREOF” (ZHEJIANG JIUHOU PHARMA SCIENCE & TECHNOLOGY CO., LTD., priority 2010, published 2013).
Converted amounts (≈) assume the structure as drawn.

Assays:
[1] = solubility in water or ethanol; type: physicochemical
[2] = cited from earlier work

Compound	solubility in ethanol ([1]; ethanol)	solubility in water ([1]; water)	solubility in water at 25° C. [2] [µg/mL]
CC(C)CN(C[C@@H](OP(=O)([O-])[O-])[C@H](Cc1ccccc1)NC(=O)O[C@H]1CCOC1)S(=O)(=O)c1ccc([N+](=O)[O-])cc1.[Na+].[Na+] [sodium (3S)4etrahydrofuran-3-yl(1S,2R)-3-[(4-nitrophenyl)sulfonyl](isobutyl)amino-1-benzyl-2-(phosphonooxy)propyl-carbamate]	soluble	soluble	–
CC(C)CN(C[C@@H](O)[C@H](Cc1ccccc1)NC(=O)O[C@H]1CCOC1)S(=O)(=O)c1ccc(N)cc1 [APV, amprenavir]	–	–	40 (≈ 79.1 µM)
